Measurements reported in the supplement of paper PMC4862054.
Several values for one entry are separate records, joined by “and”; a condition that tells them apart may be missing. Equal values may be shown once.

Assays:
Conditions in all cases: incubation time: 72 h
MDA-MB-436 = assay: normalised response (% of control), CellTiter-Glo; higher = more viable cells (100 = DMSO, 0 = benzethonium chloride kill control)
Protocol: (§1)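 DSRT, 72 h incubation, CellTox Green / CellTiter-Glo readout. Signal is normalised to DMSO and benzethonium chloride controls. Value is the normalised response at the highest dose.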

BT-474 = assay: as above
Protocol: as §1

Hs578T = assay: as above
Protocol: as §1

CAL-85-1 [1] = assay: as above
Protocol: as §1

MDA-MB-231 = assay: as above
Protocol: as §1

CAL-148 [2] = assay: as above
Protocol: as §1

HDQ-P1 [3] = assay: as above
Protocol: as §1

MDA-MB-468 = assay: as above
Protocol: as §1

MDA-MB-453 [4] = assay: as above
Protocol: as §1

DU-4475 [5] = assay: as above
Protocol: as §1

HCC1937 = assay: as above
Protocol: as §1

CAL-51 [6] = assay: normalised viability (% of control), CellTiter-Blue; higher = more viable cells (about 100 = DMSO control)
Protocol: (§2)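 DSRT, CellTiter-Blue viability, 72 h incubation. Signal is normalised to DMSO and benzethonium chloride controls. Value is the normalised response at dose 9.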

CAL-85-1 [7] = assay: as above
Protocol: as §2

CAL-148 [8] = assay: as above
Protocol: as §2

HDQ-P1 [9] = assay: as above
Protocol: as §2

MDA-MB-453 [10] = assay: as above
Protocol: as §2

DU-4475 [11] = assay: as above
Protocol: as §2

CAL-51 [12] = assay: as above; remark: listed apart in the source
Protocol: (§3)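 DSRT, CellTiter-Blue viability, 72 h incubation. Signal is normalised to DMSO and benzethonium chloride controls. Value is the normalised response at dose 7.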

CAL-85-1 [13] = assay: as above; remark: listed apart in the source
Protocol: as §3

CAL-148 [14] = assay: as above; remark: listed apart in the source
Protocol: as §3

HDQ-P1 [15] = assay: as above; remark: listed apart in the source
Protocol: as §3

MDA-MB-453 [16] = assay: as above; remark: listed apart in the source
Protocol: as §3

DU-4475 [17] = assay: as above; remark: listed apart in the source
Protocol: as §3

Row | Compound | normalised response (MDA-MB-436) | normalised response (BT-474) | normalised response (Hs578T) | normalised response (CAL-85-1 [1]) | normalised response (MDA-MB-231) | normalised response (CAL-148 [2]) | normalised response (HDQ-P1 [3]) | normalised response (MDA-MB-468) | normalised response (MDA-MB-453 [4]) | normalised response (DU-4475 [5]) | normalised response (HCC1937) | normalised viability (CAL-51 [6]) | normalised viability (CAL-85-1 [7]) | normalised viability (CAL-148 [8]) | normalised viability (HDQ-P1 [9]) | normalised viability (MDA-MB-453 [10]) | normalised viability (DU-4475 [11]) | normalised viability (CAL-51 [12]) | normalised viability (CAL-85-1 [13]) | normalised viability (CAL-148 [14]) | normalised viability (HDQ-P1 [15]) | normalised viability (MDA-MB-453 [16]) | normalised viability (DU-4475 [17])
1 | COc1cc(OC2CCN(C)CC2)ccc1Nc1ncc2c(n1)n(C1CCCC1)c(=O)n2C [AZ 3146] (10000 nM) | 79.3% | 59.9% | 63% | 51.7% | 62.3% | 58.7% | 70.6% | 28.6% | 95.7% | 79.1% | 70.3% | 22% | 72.4% | 48.4% | 80.1% | 37.4% | 54.6% |  |  |  |  |  | 
2 | CO[C@H]1C[C@@H]2CC[C@@H](C)[C@@](O)(O2)C(=O)C(=O)N2CCCC[C@H]2C(=O)O[C@H]([C@H](C)C[C@@H]2CC[C@@H](OP(C)(C)=O)[C@H](OC)C2)CC(=O)[C@H](C)/C=C(\C)[C@@H](O)[C@@H](OC)C(=O)[C@H](C)C[C@H](C)/C=C/C=C/C=C/1C [Ridaforolimus] (100 nM) | 82.5% | 81.5% | 69.6% | 66.8% | 88.4% | 58.8% | 79% | 56.7% | 62.8% | 72.8% | 69.3% |  |  |  |  |  |  | 39.4% | 52.5% | 37% | 76.6% | 24.1% | 53.7%
3 | C=C1C[C@@H]2[C@H](CC[C@]3(C)C(=O)CC[C@@H]23)[C@@]2(C)C=CC(=O)C=C12 [Exemestane] (10000 nM) | 88% | 108% | 102% | 97.7% | 104% | 112% | 92.3% | 76.3% | 95.7% | 108% | 89.5% | 105% | 99.1% | 104% | 103% | 81% | 88.9% |  |  |  |  |  | 
4 | Oc1ccc2c(c1)CC[C@H](c1ccccc1)[C@@H]2c1ccc(OCCN2CCCC2)cc1 [Lasofoxifene] (100 nM) |  |  |  |  |  |  |  |  |  |  |  |  |  |  |  |  |  | 99.7% | 87.2% | 107% | 109% | 80.7% | 106%
5 | N#Cc1ccc(COC[C@H]2O[C@@H](n3c(NCc4ccc(Cl)c(Cl)c4)nc4c(N)ncnc43)[C@H](O)[C@@H]2O)cc1 (10000 nM) | 85.1% | 68.2% | 78.2% | 86.3% | 74.5% | 83.7% | 69.6% | 72.5% | 75% | 65.6% | 51.6% | 89.9% | 92% | 89% | 88.4% | 50.3% | 76.9% |  |  |  |  |  | 
6 | COc1cc2ncnc(Nc3ccc(F)c(Cl)c3)c2cc1OCCCN1CCOCC1 [Gefitinib] (10000 nM) | 74.1% | 69.8% | 97% | 34.7% | 70.5% | 69.7% | 56% | 38.1% | 60.3% | 104% | 60.9% | 82.1% and 81.6% | 45% and 40.7% | 69.2% and 65% | 59.6% and 51.1% | 29.8% and 23% | 102% and 105% |  |  |  |  |  | 
7 | Cc1[nH]c2ccccc2c1CCNCc1ccc(/C=C/C(=O)NO)cc1 [Panobinostat] (100 nM) |  |  |  |  |  |  |  |  |  |  |  |  |  |  |  |  |  | 25.6% | 15.6% | 5.94% | 32.3% | 2.59% | 3.38%
8 | CN(C)CCOc1ccc(/C(=C(/CCCl)c2ccccc2)c2ccccc2)cc1 [Toremifene] (1000 nM) |  |  |  |  |  |  |  |  |  |  |  |  |  |  |  |  |  | 100% | 99.7% | 108% | 124% | 106% | 97.4%
9 | O=P1(N(CCCl)CCCl)NCCCO1 (stereo not drawn) [Cyclophosphamide] (40000 nM) | 96.3% | 92.8% | 106% | 98.8% | 99.9% | 101% | 96.8% | 93.2% | 101% | 102% | 95.8% | 101% | 98.4% | 110% | 120% | 117% | 94.4% |  |  |  |  |  | 
10 | O=C(Nc1ccncc1)C(=O)c1cn(Cc2ccc(Cl)cc2)c2ccccc12 [Indibulin] (1000 nM) |  |  |  |  |  |  |  |  |  |  |  |  |  |  |  |  |  | 54.2% | 53.8% | 118% | 61.3% | 38.5% | 81.8%
11 | C=C1C[C@@H]2[C@H](CC[C@]3(C)C(=O)CC[C@@H]23)[C@@]2(C)C=CC(=O)C=C12 [Exemestane] (1000 nM) |  |  |  |  |  |  |  |  |  |  |  |  |  |  |  |  |  | 96.5% | 91.7% | 120% | 102% | 90.2% | 85.8%
12 | CCc1c2c(nc3ccc(OC(=O)N4CCC(N5CCCCC5)CC4)cc13)-c1cc3c(c(=O)n1C2)COC(=O)[C@]3(O)CC [Irinotecan] (10000 nM) | 36.8% | 69.5% | 86.9% | 63.6% | 84.8% | 26.4% | 73.3% | 23.2% | 102% | 41.8% | 70.9% | 8.48% and 31.6% |  |  | 64% and 80% |  | 4.69% and 18.8% |  |  |  |  |  | 
13 | COc1cc(OC2CCN(C)CC2)ccc1Nc1ncc2c(n1)n(C1CCCC1)c(=O)n2C [AZ 3146] (1000 nM) |  |  |  |  |  |  |  |  |  |  |  |  |  |  |  |  |  | 75.2% | 108% | 108% | 89.4% | 90.6% | 99%
14 | CC(C)C[C@@H](C(=O)N[C@H](C(=O)OC1CCCC1)c1ccccc1)[C@H](O)C(=O)NO [Tosedostat] (1000 nM) |  |  |  |  |  |  |  |  |  |  |  |  |  |  |  |  |  | 77.1% | 77% | 67.8% | 76.3% | 41.2% | 51%
15 | COc1cc2ncnc(Nc3ccc(F)c(Cl)c3)c2cc1OCCCN1CCOCC1 [Gefitinib] (1000 nM) |  |  |  |  |  |  |  |  |  |  |  |  |  |  |  |  |  | 107% and 98.3% | 54.4% and 47.4% | 79.6% and 83.3% | 76.2% and 90.4% | 82.9% and 76.9% | 101% and 86.2%
16 | O=P1(N(CCCl)CCCl)NCCCO1 (stereo not drawn) [Cyclophosphamide] (4000 nM) |  |  |  |  |  |  |  |  |  |  |  |  |  |  |  |  |  | 99% | 101% | 121% | 99.2% | 105% | 97%
17 | CNC(=O)c1cc(Oc2ccc(NC(=O)Nc3ccc(Cl)c(C(F)(F)F)c3)c(F)c2)ccn1 [Regorafenib] (1000 nM) |  |  |  |  |  |  |  |  |  |  |  |  |  |  |  |  |  | 90.5% | 78.6% | 107% | 98.3% | 87% | 97.6%
18 | O=C(/C=C/c1cccc(S(=O)(=O)Nc2ccccc2)c1)NO [Belinostat] (1000 nM) |  |  |  |  |  |  |  |  |  |  |  |  |  |  |  |  |  | 59.9% | 42.8% | 24.3% | 49.5% | 4.06% | 33.3%
19 | O=C(Nc1cccnc1)N1CCC(Cc2cccc(Oc3ccc(C(F)(F)F)cn3)c2)CC1 [PF-3845] (1000 nM) |  |  |  |  |  |  |  |  |  |  |  |  |  |  |  |  |  | 101% | 83% | 101% | 144% | 86% | 81.3%
20 | Cc1ccc(NC(=O)c2ccc(CN3CCN(C)CC3)cc2)cc1Nc1nc(-c2cccnc2)cs1 [Masitinib] (1000 nM) |  |  |  |  |  |  |  |  |  |  |  |  |  |  |  |  |  | 104% | 94.3% | 87.1% | 105% | 89.6% | 120%
21 | CCc1c2c(nc3ccc(OC(=O)N4CCC(N5CCCCC5)CC4)cc13)-c1cc3c(c(=O)n1C2)COC(=O)[C@]3(O)CC [Irinotecan] (1000 nM) |  |  |  |  |  |  |  |  |  |  |  |  |  |  |  |  |  | 80.6% and 99.8% | 88.7% and 94.5% | 61.5% and 70.9% | 98.8% and 93.5% | 76% and 99.8% | 73.1% and 78.7%
22 | COc1cc2/c(=N/c3ccc(Br)cc3F)nc[nH]c2cc1OCC1CCN(C)CC1 [Vandetanib] (1000 nM) | 86% | 79.3% | 91.7% | 58.9% | 79.1% | 78.9% | 56.3% | 69.9% | 74.5% | 87.8% | 78% |  |  |  |  |  |  | 82.4% | 71% | 89.2% | 48.7% | 87.9% | 105%
23 | CN(C)c1nc(N(C)C)nc(N(C)C)n1 [Altretamine] (1000 nM) |  |  |  |  |  |  |  |  |  |  |  |  |  |  |  |  |  | 103% | 96.9% | 105% | 101% | 91.6% | 113%
24 | N#Cc1ccc(COC[C@H]2O[C@@H](n3c(NCc4ccc(Cl)c(Cl)c4)nc4c(N)ncnc43)[C@H](O)[C@@H]2O)cc1 (1000 nM) |  |  |  |  |  |  |  |  |  |  |  |  |  |  |  |  |  | 105% | 88.9% | 101% | 81.2% | 93.2% | 99.8%
25 | c1ccc2c(CCNc3ccc(Nc4ccncc4)cc3)c[nH]c2c1 [Serdemetan] (1000 nM) |  |  |  |  |  |  |  |  |  |  |  |  |  |  |  |  |  | 102% | 75.9% | 77.3% | 96.4% | 85.2% | 104%
26 | NC(=O)c1ccc(I)c([N+](=O)[O-])c1 [Iniparib] (1000 nM) |  |  |  |  |  |  |  |  |  |  |  |  |  |  |  |  |  | 95.3% | 83.3% | 87.9% | 99.6% | 89.2% | 108%
27 | COCC[n+]1c2c(n(Cc3cnccn3)c1C)C(=O)c1ccccc1C2=O [YM155] (1000 nM) |  |  |  |  |  |  |  |  |  |  |  |  |  |  |  |  |  | 1.61% | 2.27% | 2.29% | 0.25% | 7.19% | 1.98%
28 | COCC1(CO)C(=O)C2CCN1CC2 (stereo not drawn) [Prima-1 Met] (1000 nM) |  |  |  |  |  |  |  |  |  |  |  |  |  |  |  |  |  | 102% | 90.9% | 102% | 106% | 80.5% | 108%
